Experimental findings from patent US6399629B1, “Efflux pump inhibitors” (priority 1998, dated 2002) are described below.

This test has as its system Pseudomonas aeruginosa PAM1001. The test is described as follows: microbe, parasite or virus in culture. It counts as cell-based. Particulars: for Inhibition (%) of growth of P. aeruginosa PAM1001: Levofloxacin 0.25 μg/mL; for inhibition at 2.5 µg/mL / inhibition at 5 µg/mL / inhibition at 10 µg/mL / inhibition at 20 µg/mL / inhibition at 40 µg/mL: Pseudomonas aeruginosa, PAM1001, read-out: Inhibition (%) of growth of P. aeruginosa PAM1001. The method, then:
For compounds labeled with the prefix ‘D’, potentiation is measured by inhibition of growth of Pseudomonas aeruginosa PAM1001 at varying concentrations of efflux pump inhibitors (EPIs) in the presence of levofloxacin (0.25 microg/mL). Bacteria are grown in Mueller Hinton Broth (MHB, Difco) with an initial inoculum of 1×10^6 CFU/mL. Kinetics of bacterial growth is monitored, during 18 h of incubation at 37° C., by measurement of the culture absorbance at 650 nm using a 96-well plate spectrophotometer (SpectraMax, Molecular Devices). The inhibitory effect of EPIs is expressed as a percentage of growth inhibition compared to a control bacterial culture grown in the presence of 0.25 microg/mL levofloxacin but without EPIs.

[1] abbreviates: Concentration of Compound 2.5 μg/mL.
The mark [2] stands for this setting: Concentration of Compound 5 μg/mL.
The mark [3] stands for this setting: Concentration of Compound 10 μg/mL.
Setting [4] is: Concentration of Compound 20 μg/mL.
Setting [5] is: Concentration of Compound 40 μg/mL.

Where a name gives a salt, the structure may show the parent alone.

For `Cl.Cl.NCC(=O)N[C@H]1CN[C@H](C(=O)NCc2ccc(-c3ccccc3)cc2)C1` (relative stereo) [Compound D316, trans-4-Glycylmino-L-Proline 4-Phenylbenzylamide Dihydrochloride], the “Inhibition (%) of growth of P. aeruginosa PAM1001” value is, setting by setting: under setting [1], 20%; under setting [2], 20%; under setting [3], 21%; under setting [4], 82%; under setting [5], 100%.
What is called inhibition is the relative decrease from the control value, in per cent. As for `NCC(=O)N[C@H]1CN[C@H](C(=O)Nc2ccc(Oc3ccc(Cl)cc3)cc2)C1` [Compound D303, trans-4-Glycylamino-L-Proline 4-(4′-Chlorophenoxy)-phenylamide Dihydrochloride], the inhibition at 2.5 µg/mL was 18%, the inhibition at 5 µg/mL was 91%, the inhibition at 10 µg/mL was determined as 100% and the inhibition at 20 µg/mL was 100%. Further, the inhibition at 40 µg/mL came out at 99%.
For the compound `Cc1ccc(Oc2ccc(NC(=O)[C@@H]3C[C@@H](NC(=O)CN)CN3)cc2)cc1` [Compound D302, trans-4-Glycylamino-L-Proline 4-(4′-Methylphenoxy)-phenylamide Dihydrochloride], the inhibition at 2.5 µg/mL came to 22%, the inhibition at 5 µg/mL turned out to be 17%, the inhibition at 10 µg/mL was determined as 97% and the inhibition at 20 µg/mL was 100%. Also, the inhibition at 40 µg/mL amounted to 100%.
In the case of `NCC(=O)N[C@H]1CN[C@H](C(=O)N2CCC(Oc3ccc(OCc4ccccc4)cc3)CC2)C1` [Compound D413, 1-(trans-4-Glycylamino-L-Prolyl)4-(4-Benzyloxyphenoxy)piperidine Dihydrochloride], the inhibition at 2.5 µg/mL is 13%, the inhibition at 5 µg/mL was 8%, the inhibition at 10 µg/mL is 97% and the inhibition at 20 µg/mL amounted to 100%. The inhibition at 40 µg/mL came to 100%.
On to `CNCC(=O)N1C[C@H](N)C[C@H]1C(=O)N1C[C@H](NC(=O)[C@H](O)CCc2ccccc2)C[C@H]1C(=O)Nc1cnc2ccccc2c1` (mixture of isomers) [Compound D111, 1-(N-Methylglycyl)-trans-4-Amino-L-Prolyl-trans-4-((R)-2-Hydroxy-4-Phenylbutyrylamino)-L-Proline 3-Quinolylamide Trihydrochloride], for which the inhibition at 2.5 µg/mL turned out to be 20%, the inhibition at 5 µg/mL was 20%, the inhibition at 10 µg/mL was 19% and the inhibition at 20 µg/mL came to 27%. The inhibition at 40 µg/mL turned out to be 100%.
As to `NCC(=O)N[C@H]1CN[C@H](C(=O)N2CCN(c3cccc(Cl)c3)CC2)C1` [Compound D401, 1-(trans-4-Glycylamino-L-Prolyl)-4-(3-Chlorophenyl)-piperazine Dihydrochloride], the inhibition at 2.5 µg/mL is 21%, the inhibition at 5 µg/mL was 19%, the inhibition at 10 µg/mL worked out at 15% and the inhibition at 20 µg/mL amounted to 4%. The inhibition at 40 µg/mL was 96%.
In the case of `NCC(=O)N[C@H]1CN[C@H](C(=O)N[C@H](CCc2ccccc2)C(=O)Nc2cnc3ccccc3c2)C1` [Compound D201, trans-4-Glycylamino-L-Prolyl-D-Homophenylalanine 3-Quinolylamide Trihydrochloride], the inhibition at 2.5 µg/mL came out at 17%, the inhibition at 5 µg/mL is 9%, the inhibition at 10 µg/mL was found to be 99% and the inhibition at 20 µg/mL stood at 100%. The inhibition at 40 µg/mL was 100%.
For the compound `Cl.Cl.NCC(=O)N[C@H]1CN[C@H](COc2ccc(-c3ccccc3)cc2)C1` [Compound D501, (2S,4R)-4-Glycylamino-2-(4-Biphenyloxy)-methylpyrrolidine Dihydrochloride], the “Inhibition (%) of growth of P. aeruginosa PAM1001” value by setting is: under setting [1], 1%; under setting [2], 98%; under setting [3], 100%; under setting [4], 100%; under setting [5], 98%.
Regarding `NC[C@H]1CN[C@H](C(=O)N2C[C@H](NC(=O)[C@H](O)CCc3ccccc3)C[C@H]2C(=O)Nc2cnc3ccccc3c2)C1` (mixture of isomers) [Compound D109, trans-4-Aminomethyl-L-Prolyl-trans-4-((R)-2-Hydroxy-4-Phenylbutyrylamino)-L-Proline 3-Quinolylamide Trihydrochloride], the inhibition at 2.5 µg/mL was found to be 17%, the inhibition at 5 µg/mL came out at 21%, the inhibition at 10 µg/mL turned out to be 98% and the inhibition at 20 µg/mL was 100%. For the same compound, the inhibition at 40 µg/mL turned out to be 100%.
“trans-4-Glycylamino-D-proline 3-Biphenylamide Dihydrochloride [Compound D307]”: the “Inhibition (%) of growth of P. aeruginosa PAM1001” value came to 24% under setting [1]; 5% under setting [2]; 90% under setting [3]; 100% under setting [4]; 100% under setting [5].
As to `Cl.Cl.Cl.NCC(=O)N[C@H]1CN[C@H](C(=O)Nc2cnc3ccc(Cc4ccccc4)cc3c2)C1` (relative stereo) [Compound D327, trans-4-Glycylamino-L-Proline 3-(6-Benzyl)quinolyl-amide Trihydrochloride], the “Inhibition (%) of growth of P. aeruginosa PAM1001” value reads like this: under setting [1], 20%; under setting [2], 19%; under setting [3], 99%; under setting [4], 100%; under setting [5], 100%.
Regarding `NCC(=O)N[C@H]1CN[C@H](C(=O)NCC(=O)Nc2ccc(Cc3ccccc3)cc2)C1` [Compound D210, trans-4-Glycylamino-L-Prolylglycine 4-Benzylphenyl-amide Dihydrochloride], the inhibition at 2.5 µg/mL is 14%, the inhibition at 5 µg/mL turned out to be 16%, the inhibition at 10 µg/mL was determined as 12% and the inhibition at 20 µg/mL was found to be 99%. Moreover, the inhibition at 40 µg/mL worked out at 100%.
For `NCCNC(=O)[C@@H]1C[C@@H](Oc2cccc(-c3ccccc3)c2)CN1` [Compound D601, trans-4-(3-Biphenyloxy)-L-Proline 2-Aminoethylamide Dihydrochloride], the inhibition at 2.5 µg/mL was determined as 20%, the inhibition at 5 µg/mL was 18%, the inhibition at 10 µg/mL was 16% and the inhibition at 20 µg/mL was determined as 86%. Also, the inhibition at 40 µg/mL came out at 100%.
For the compound `NCC(=O)N[C@H]1CN[C@H](C(=O)Nc2cccc(OCc3ccccc3)c2)C1` [Compound D318, trans-4-Glycylamino-L-Proline 3-Benzyloxyphenyl-amide Dihydrochloride], the inhibition at 2.5 µg/mL amounted to 17%, the inhibition at 5 µg/mL stood at 16%, the inhibition at 10 µg/mL is 19% and the inhibition at 20 µg/mL was 99%. Moreover, the inhibition at 40 µg/mL stood at 99%.
Turning to `Cl.Cl.NCC(=O)N[C@@H]1CN[C@@H](C(=O)N2CCC(Oc3cc(Cl)cc(Cl)c3)CC2)C1` [Compound D415], the “Inhibition (%) of growth of P. aeruginosa PAM1001” value reads like this: under setting [1], 13%; under setting [2], 99%; under setting [3], 100%; under setting [4], 100%; under setting [5], 100%.
On to `NCC(=O)N[C@H]1CCN[C@H](C(=O)N2C[C@H](NC(=O)[C@H](O)CCc3ccccc3)C[C@H]2C(=O)Nc2cnc3ccccc3c2)C1` (mixture of isomers) [Compound D114, trans-4-Glycylamino-L-Pipecolinoyl-trans-4-((R)-2-Hydroxy-4-Phenylbutyrylamino)-L-Proline 3-Quinolylamide Trihydrochloride], for which the inhibition at 2.5 µg/mL was found to be 20%, the inhibition at 5 µg/mL turned out to be 22%, the inhibition at 10 µg/mL worked out at 90% and the inhibition at 20 µg/mL amounted to 100%. Moreover, the inhibition at 40 µg/mL was determined as 100%.
Turning to `NCC(=O)N[C@H]1CN[C@H](COc2cccc(-c3ccccc3)c2)C1` [Compound D502, (2S,4R)-4-Glycylamino-2-(3-Biphenyloxy)methyl-pyrrolidine Dihydrochloride], the inhibition at 2.5 µg/mL came to 13%, the inhibition at 5 µg/mL was determined as 88%, the inhibition at 10 µg/mL stood at 99% and the inhibition at 20 µg/mL stood at 100%. For the same compound, the inhibition at 40 µg/mL worked out at 100%.
In the case of `N[C@@H]1CCN[C@H](C(=O)N2C[C@H](NC(=O)[C@H](O)CCc3ccccc3)C[C@H]2C(=O)Nc2cnc3ccccc3c2)C1` (mixture of isomers) [Compound D113, cis-4-Amino-L-Pipecolinoyl-trans-4-((R)-2-Hydroxy-4-Phenylbutyrylamino)-L-Proline 3-Quinolylamide Trihydrochloride], the inhibition at 2.5 µg/mL was 20%, the inhibition at 5 µg/mL is 32%, the inhibition at 10 µg/mL amounted to 15% and the inhibition at 20 µg/mL amounted to 15%. For the same compound, the inhibition at 40 µg/mL amounted to 100%.
As for `NCC(=O)N[C@H]1CN[C@H](C(=O)N[C@H](CCc2ccccc2)C(=O)Nc2ccc3c(c2)CCC3)C1` [Compound D203, trans-4-Glycylamino-L-Prolyl-D-Homophenylalanine 5-Indanylamide Dihydrochloride], the inhibition at 2.5 µg/mL was found to be 18%, the inhibition at 5 µg/mL came to 17%, the inhibition at 10 µg/mL came out at 100% and the inhibition at 20 µg/mL is 100%. The inhibition at 40 µg/mL is 100%.
